pEC50: −log10 of the molar value. Read-outs that look alike come from different tables or passages of the source. Marks after values point to notes of the source that are not given here. Values belong to the compound of their own block, whether it stands above or below them. Starred links: 1 amine or outer side, 2 acyl side, 3 side chain; linkers in the order of their positions; H or OH if unused. Non-standard residues stand in square brackets, D forms with d. Residues, ends and D or L forms follow the SMILES beside them. Groups on a side chain read outwards from the residue. No end group written: not given here. *: point of attachment. C18 diacid = O=C(O)CCCCCCCCCCCCCCCCC(=O)*; αMePhe(2-F) = C[C@](N)(Cc1ccccc1F)C(=O)O; γGlu = O=C(O)[C@H](CCC(=O)[*:2])N[*:1]; αMe4Pal = C[C@](N)(Cc1ccncc1)C(=O)O; αMeY = C[C@](N)(Cc1ccc(O)cc1)C(=O)O; 4Pal = N[C@@H](Cc1ccncc1)C(=O)O; αMeL = CC(C)C[C@](C)(N)C(=O)O; αMeS = C[C@](N)(CO)C(=O)O; Orn = NCCC[C@H](N)C(=O)O; AEEA = NCCOCCOCC(=O)O; Aib = CC(C)(N)C(=O)O
Tests used:
hGIPR [1] = biological target: T1, hGIPR (Homo sapiens, UniProt P48546); assay: Functional cAMP activity in the presence of 1% HSA; assay type: cell-based; conditions: read-out: cAMP Rel EC50, hGIPR
T1 sequence (P48546 22-466): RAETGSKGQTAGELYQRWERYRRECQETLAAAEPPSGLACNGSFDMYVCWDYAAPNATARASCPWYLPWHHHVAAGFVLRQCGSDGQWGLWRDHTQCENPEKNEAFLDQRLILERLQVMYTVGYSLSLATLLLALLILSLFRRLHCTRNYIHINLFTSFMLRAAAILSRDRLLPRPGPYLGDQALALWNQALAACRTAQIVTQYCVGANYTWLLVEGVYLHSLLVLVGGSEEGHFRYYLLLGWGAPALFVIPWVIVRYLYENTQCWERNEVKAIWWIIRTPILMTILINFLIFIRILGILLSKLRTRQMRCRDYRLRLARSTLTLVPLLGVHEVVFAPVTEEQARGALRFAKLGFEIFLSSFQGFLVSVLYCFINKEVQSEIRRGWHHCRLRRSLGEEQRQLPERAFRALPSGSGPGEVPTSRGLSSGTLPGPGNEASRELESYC

hGLP-1R [2] = biological target: T2, hGLP-1R (Homo sapiens, UniProt P43220); assay: Functional cAMP activity in the presence of 1% HSA; assay type: cell-based; conditions: read-out: cAMP Rel EC50, hGLP-1R
T2 sequence (P43220 24-463): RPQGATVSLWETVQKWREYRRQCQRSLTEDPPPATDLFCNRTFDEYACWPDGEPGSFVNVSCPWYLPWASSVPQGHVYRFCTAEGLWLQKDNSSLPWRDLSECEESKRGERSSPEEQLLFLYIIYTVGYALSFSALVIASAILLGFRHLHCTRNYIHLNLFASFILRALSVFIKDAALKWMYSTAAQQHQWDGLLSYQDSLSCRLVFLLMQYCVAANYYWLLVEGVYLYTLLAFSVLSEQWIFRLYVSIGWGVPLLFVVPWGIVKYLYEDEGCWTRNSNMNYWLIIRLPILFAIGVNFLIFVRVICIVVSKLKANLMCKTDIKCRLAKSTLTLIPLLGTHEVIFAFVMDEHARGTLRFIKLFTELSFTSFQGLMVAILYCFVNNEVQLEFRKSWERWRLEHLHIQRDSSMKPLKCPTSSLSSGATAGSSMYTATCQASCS

human GcgR = human GcgR (Homo sapiens, UniProt P47871); assay: Functional cAMP activity in the presence of 1% HSA; assay type: cell-based; conditions: read-out: cAMP Rel EC50, hGcgR
human GcgR, sequence (P47871 26-477): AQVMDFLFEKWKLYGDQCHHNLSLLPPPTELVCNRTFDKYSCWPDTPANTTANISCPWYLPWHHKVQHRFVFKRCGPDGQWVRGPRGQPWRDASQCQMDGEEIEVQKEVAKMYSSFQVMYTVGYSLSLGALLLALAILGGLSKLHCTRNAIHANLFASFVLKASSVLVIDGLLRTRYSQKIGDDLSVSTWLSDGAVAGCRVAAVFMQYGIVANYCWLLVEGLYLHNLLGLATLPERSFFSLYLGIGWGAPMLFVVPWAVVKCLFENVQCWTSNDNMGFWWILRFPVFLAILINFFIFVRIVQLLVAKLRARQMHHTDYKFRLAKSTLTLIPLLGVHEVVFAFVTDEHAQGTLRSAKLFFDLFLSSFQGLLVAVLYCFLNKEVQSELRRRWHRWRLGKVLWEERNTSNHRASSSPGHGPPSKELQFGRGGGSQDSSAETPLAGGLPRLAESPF

hGIPR [3] = biological target: T1, hGIPR; assay: Functional cAMP activation in the presence of 0.1% casein (no HSA); assay type: cell-based; conditions: read-out: Relative cAMP EC50, hGIPR;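 on Relative cAMP EC50, hGIPR: intracellular cAMP rise after 30 min at 37 °C read by HTRF against a standard curve, scaled between buffer alone (0%) and top control ligand concentration (100%), four-parameter fit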;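 on Relative cAMP EC50, hGLP-1R: intracellular cAMP rise after 30 min at 37 °C read by HTRF, normalized between buffer only (0%) and maximal control ligand (100%), four-parameter variable-slope fit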;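 on Relative cAMP EC50, hGcgR: intracellular cAMP rise after 30 min at 37 °C, read by HTRF against a cAMP standard curve, scaled from buffer only (0%) to maximal control ligand response (100%)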
hGLP-1R [4] = biological target: T2, hGLP-1R; assay: as above; assay type: cell-based; conditions: read-out: Relative cAMP EC50, hGLP-1R
hGcgR = hGcgR (Homo sapiens, UniProt P47871); assay: as above; assay type: cell-based; conditions: read-out: Relative cAMP EC50, hGcgR;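 further: intracellular cAMP rise after 30 min at 37 °C, read by HTRF against a cAMP standard curve, scaled from buffer only (0%) to maximal control ligand response (100%)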
hGcgR, sequence (P47871 26-477): as above

in vivo = assay: in vivo; design: species or system Sprague Dawley rats; conditions: male, Sprague Dawley, rat, 4 mg/kg
[5] = Body weight in diet-induced obese C57BL/6 mice; assay type: in vivo; conditions: 10 nmol/kg SC QD, percent of starting weight, DIO mice, mean ± SEM n=5
Method in brief: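 Male C57BL/6 DIO mice (41-50 g, 5 per group, randomized by weight) on calorie-rich diet received subcutaneous doses 30-90 min before dark onset, QD or Q3D for 9-16 days. Body weight measured daily, expressed as percent of starting weight, mean±SEM.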

[6] = in the presence of 0.1% casein (no HSA), geometric mean

Compound: CC[C@H](C)[C@H](NC(=O)[C@H](Cc1ccccc1)NC(=O)[C@H](CCCN)NC(=O)C(C)(C)NC(=O)[C@H](CCC(N)=O)NC(=O)[C@H](C)NC(=O)[C@H](CCCCNC(=O)COCCOCCNC(=O)CC[C@H](NC(=O)CCCCCCCCCCCCCCCCC(=O)O)C(=O)O)NC(=O)[C@H](CCCN)NC(=O)[C@H](CC(=O)O)NC(=O)[C@H](CC(C)C)NC(=O)[C@](C)(CC(C)C)NC(=O)[C@@H](NC(=O)[C@](C)(CO)NC(=O)[C@H](Cc1ccncc1)NC(=O)[C@H](CC(=O)O)NC(=O)[C@H](CO)NC(=O)[C@@H](NC(=O)[C@](C)(Cc1ccccc1F)NC(=O)[C@@H](NC(=O)CNC(=O)[C@H](CCC(N)=O)NC(=O)C(C)(C)NC(=O)[C@@H](N)Cc1ccc(O)cc1)[C@@H](C)O)[C@@H](C)O)[C@@H](C)CC)C(=O)N[C@H](CCC(=O)O)C(=O)N[C@@](C)(Cc1ccc(O)cc1)C(=O)N[C@@H](CC(C)C)C(=O)N[C@@H](CC(C)C)C(=O)N[C@@H](CCC(=O)O)C(=O)NCC(=O)NCC(=O)N1CCC[C@H]1C(=O)N[C@@H](CO)C(=O)N[C@@H](CO)C(=O)NCC(=O)N[C@@H](CCC(=O)O)C(=O)N1CCC[C@H]1C(=O)N1CCC[C@H]1C(=O)N1CCC[C@H]1C(=O)N[C@@H](CO)C(N)=O [Example 369] (H-Y[Aib]QGT[αMePhe(2-F)]TSD[4Pal][αMeS]I[αMeL]LD[Orn]K([AEEA-γGlu-C18 diacid])AQ[Aib][Orn]FI[dE][αMeY]LLEGGPSSGEPPPS-NH2)
pEC50 (hGIPR [1]): 8.34
pEC50 (hGLP-1R [2]): 7.57
pEC50 (human GcgR): 6.95
pEC50 (hGIPR [3]; [6]): 10.58
pEC50 (hGLP-1R [4]; [6]): 9.52
pEC50 (hGcgR; [6]): 9.06
CL/F (in vivo): 11.3 mL/min/kg
half-life (in vivo): 8.2 h
Body weight (%) ([5]; 14 days): 52.91 +/− 2.17**** %

Compound: CC[C@H](C)[C@H](NC(=O)[C@H](Cc1ccccc1)NC(=O)[C@H](CCCN)NC(=O)C(C)(C)NC(=O)[C@H](CCC(N)=O)NC(=O)[C@H](C)NC(=O)[C@H](CCCCNC(=O)COCCOCCNC(=O)CC[C@H](NC(=O)CCCCCCCCCCCCCCCCC(=O)O)C(=O)O)NC(=O)[C@H](CCCN)NC(=O)[C@H](CC(=O)O)NC(=O)[C@H](CC(C)C)NC(=O)[C@](C)(CC(C)C)NC(=O)[C@@H](NC(=O)[C@](C)(CO)NC(=O)[C@H](Cc1ccc(O)cc1)NC(=O)[C@H](CC(=O)O)NC(=O)[C@H](CO)NC(=O)[C@@H](NC(=O)[C@](C)(Cc1ccccc1F)NC(=O)[C@@H](NC(=O)CNC(=O)[C@H](CCC(N)=O)NC(=O)C(C)(C)NC(=O)[C@@H](N)Cc1ccc(O)cc1)[C@@H](C)O)[C@@H](C)O)[C@@H](C)CC)C(=O)N[C@H](CCC(=O)O)C(=O)N[C@@](C)(Cc1ccc(O)cc1)C(=O)N[C@@H](CC(C)C)C(=O)N[C@@H](CC(C)C)C(=O)N[C@@H](CCC(=O)O)C(=O)NCC(=O)NCC(=O)N1CCC[C@H]1C(=O)N[C@@H](CO)C(=O)N[C@@H](CO)C(=O)NCC(=O)N[C@@H](CCC(=O)O)C(=O)N1CCC[C@H]1C(=O)N1CCC[C@H]1C(=O)N1CCC[C@H]1C(=O)N[C@@H](CO)C(N)=O [Example 368] (H-Y[Aib]QGT[αMePhe(2-F)]TSDY[αMeS]I[αMeL]LD[Orn]K([AEEA-γGlu-C18 diacid])AQ[Aib][Orn]FI[dE][αMeY]LLEGGPSSGEPPPS-NH2)
pEC50 (hGIPR [1]): 8.58
pEC50 (hGLP-1R [2]): 7.43
pEC50 (human GcgR): 6.95
pEC50 (hGIPR [3]; [6]): 10.92
pEC50 (hGLP-1R [4]; [6]): 9.62
pEC50 (hGcgR; [6]): 9.32
CL/F (in vivo): 7.33 mL/min/kg
half-life (in vivo): 9.6 h
Body weight (%) ([5]; 14 days): 52.52 +/− 2.49**** %

Compound: H-Y[Aib]QGT[αMePhe(2-F)]TSD[4Pal][αMeS]I[αMeL]LD[Orn]K([AEEA-AEEA-γGlu-C18 diacid])AQ[Aib][Orn]FI[dE][αMeY]LIEGGPSSGAPEPSEG-NH2 [Example 472]
pEC50 (hGIPR [1]): 9.03
pEC50 (hGLP-1R [2]): 8.10
pEC50 (human GcgR): 6.64
pEC50 (hGIPR [3]): 10.82
pEC50 (hGLP-1R [4]): 9.77
pEC50 (hGcgR): 8.56
CL/F (in vivo): 7.33 mL/min/kg
half-life (in vivo): 9.4 h
Body weight (%) ([5]; 9 days): 76.13 ± 2.28 %

Compound: H-Y[Aib]QGT[αMePhe(2-F)]TSD[4Pal]SI[αMeL]LD[Orn]K([AEEA-γGlu-C18 diacid])AQ[αMe4Pal][Orn]FI[dE][αMeY]LIEGGPSSGEPPPEEG-NH2 [Example 475]
pEC50 (hGIPR [1]): 8.73
pEC50 (hGLP-1R [2]): 7.73
pEC50 (human GcgR): 6.60
pEC50 (hGIPR [3]): 10.76
pEC50 (hGLP-1R [4]): 9.60
pEC50 (hGcgR): 8.65
CL/F (in vivo): 3.5 mL/min/kg
half-life (in vivo): 13.7 h
Body weight (%) ([5]; 9 days): 69.34 ± 2.99 %

Continued by rising pEC50 (hGIPR [1]), values first:

pEC50 (hGIPR [1]): 8.20
pEC50 (hGLP-1R [2]): 7.61
pEC50 (human GcgR): 6.30
pEC50 (hGIPR [3]): 10.25
pEC50 (hGLP-1R [4]): 9.44
pEC50 (hGcgR): 8.37
CL/F (in vivo): 16.2 mL/min/kg
half-life (in vivo): 8.3 h
Compound: Y[Aib]QGT[αMePhe(2-F)]TSD[4Pal][αMeS]I[αMeL]LD[Orn]K([AEEA-γGlu-C18 diacid])AQ[Aib][Orn]FI[dE]YLIEGGPSSGEPPPSEG-NH2 [Example 463]
Body weight (%) ([5]; 9 days): 83.31 ± 2.10 %

pEC50 (hGIPR [1]): 8.67
pEC50 (hGLP-1R [2]): 7.73
pEC50 (human GcgR): 6.75
pEC50 (hGIPR [3]; [6]): 10.67
pEC50 (hGLP-1R [4]; [6]): 9.60
pEC50 (hGcgR; [6]): 8.84
CL/F (in vivo): 3.83 mL/min/kg
half-life (in vivo): 8.2 h
Compound: CC[C@H](C)[C@H](NC(=O)[C@H](CC(C)C)NC(=O)[C@](C)(Cc1ccc(O)cc1)NC(=O)[C@@H](CCC(=O)O)NC(=O)[C@@H](NC(=O)[C@H](Cc1ccccc1)NC(=O)[C@H](CCCN)NC(=O)C(C)(C)NC(=O)[C@H](CCC(N)=O)NC(=O)[C@H](C)NC(=O)[C@H](CCCCNC(=O)COCCOCCNC(=O)CC[C@H](NC(=O)CCCCCCCCCCCCCCCCC(=O)O)C(=O)O)NC(=O)[C@H](CCCN)NC(=O)[C@H](CC(=O)O)NC(=O)[C@H](CC(C)C)NC(=O)[C@](C)(CC(C)C)NC(=O)[C@@H](NC(=O)[C@](C)(CO)NC(=O)[C@H](Cc1ccncc1)NC(=O)[C@H](CC(=O)O)NC(=O)[C@H](CO)NC(=O)[C@@H](NC(=O)[C@](C)(Cc1ccccc1F)NC(=O)[C@@H](NC(=O)CNC(=O)[C@H](CCC(N)=O)NC(=O)C(C)(C)NC(=O)[C@@H](N)Cc1ccc(O)cc1)[C@@H](C)O)[C@@H](C)O)[C@@H](C)CC)[C@@H](C)CC)C(=O)N[C@@H](CCC(=O)O)C(=O)NCC(=O)NCC(=O)N1CCC[C@H]1C(=O)N[C@@H](CO)C(=O)N[C@@H](CO)C(=O)NCC(=O)N[C@@H](CCC(=O)O)C(=O)N1CCC[C@H]1C(=O)N1CCC[C@H]1C(=O)N1CCC[C@H]1C(=O)N[C@@H](CCC(=O)O)C(N)=O [Example 378] (H-Y[Aib]QGT[αMePhe(2-F)]TSD[4Pal][αMeS]I[αMeL]LD[Orn]K([AEEA-γGlu-C18 diacid])AQ[Aib][Orn]FI[dE][αMeY]LIEGGPSSGEPPPE-NH2)
Body weight (%) ([5]; 15 days): 68.84 +/− 1.37**** %

pEC50 (hGIPR [1]): 8.72
pEC50 (hGLP-1R [2]): 7.92
pEC50 (human GcgR): 6.86
pEC50 (hGIPR [3]): 10.85
pEC50 (hGLP-1R [4]): 9.75
pEC50 (hGcgR): 8.92
CL/F (in vivo): 10.7 mL/min/kg
half-life (in vivo): 7.8 h
Compound: Y[Aib]QGT[αMePhe(2-F)]TSD[4Pal][αMeS]I[αMeL]LD[Orn]K([AEEA-γGlu-C18 diacid])AQ[Aib][Orn]FI[dE][αMeY]LIEGGPSSGAPEPSEG-NH2 [Example 429]
Body weight (%) ([5]; 9 days): 74.66 ± 3.87 %
Body weight (%) ([5]; 15 days): 70.20 ± 1.63 %

pEC50 (hGIPR [1]): 8.79
pEC50 (hGLP-1R [2]): 7.89
pEC50 (human GcgR): 6.74
pEC50 (hGIPR [3]): 10.83
pEC50 (hGLP-1R [4]): 9.69
pEC50 (hGcgR): 8.77
CL/F (in vivo): 10 mL/min/kg
half-life (in vivo): 11 h
Compound: H-Y[Aib]QGT[αMePhe(2-F)]TSD[4Pal][αMeS]I[αMeL]LD[Orn]K([AEEA-γGlu-C18 diacid])AQ[Aib][Orn]FI[dE][αMeY]LIEGGPSSGEPPPEEG-NH2 [Example 462]
Body weight (%) ([5]; 9 days): 73.68 ± 2.82 %
